In patent publication US8859574B2 (IRM LLC, priority 2008, dated 2014) one finds IC50 data, which are given here for 26 molecules.

This assay deals with T1, IGF-1R Ba/F3 (Homo sapiens, UniProt P08069).
T1 construct: fused on or other part: TEL- (or BCR-) IGF-1R in Ba/F3: the kinase part holds the site
Kind of assay: Ba/F3 Cell Viability Inhibition Assay (IGF-1R Ba/F3). The class given is cell-based, murine. Conditions: Tel-TK transformed Ba/F3 cells, 48 hours, Britelite luminescence. The procedure, abridged:
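A 48 h compound treatment at 37 °C (3750 cells/well) was followed by Britelite luminescence to measure viability. Cells were Ba/F3 pro-B cells, IL-3-independent via TEL-fused IGF-1R kinase transduction. A logistic fit gave IC50 as 50% viability relative to DMSO control.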

Structures are written as SMILES.

T1 sequence (P08069 999-1274 limits assumed): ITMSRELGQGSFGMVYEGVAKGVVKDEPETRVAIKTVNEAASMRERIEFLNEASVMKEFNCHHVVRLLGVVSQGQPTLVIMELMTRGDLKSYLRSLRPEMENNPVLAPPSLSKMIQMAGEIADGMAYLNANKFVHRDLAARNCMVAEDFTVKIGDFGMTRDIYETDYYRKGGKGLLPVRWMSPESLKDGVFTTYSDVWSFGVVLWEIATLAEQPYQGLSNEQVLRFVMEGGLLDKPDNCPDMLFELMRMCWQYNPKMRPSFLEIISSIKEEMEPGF

As usually defined, the IC50 is the concentration needed to halve the response being measured. Read a high IC50 as a need for much substance. As to `Cc1cc(Nc2nc(Nc3cc(C4CCNCC4)c(F)cc3C)ncc2Cl)n[nH]1` [Compound 8, 5-chloro-N2-(4-fluoro-2-methyl-5-(piperidin-4-yl)phenyl)-N4-(5-methyl-1H-pyrazol-3-yl)pyrimidine-2,4-diamine], the concentration for half-maximal inhibition (IC50) amounted to 1930 nM. The same measure for `Cc1cc(Nc2nc(Nc3cc(C)c(C4CCN(C)CC4)cc3C)ncc2Cl)n[nH]1` [Compound 6, 5-chloro-N2-(2,5-dimethyl-4-(1-methylpiperidin-4-yl)phenyl)-N4-(5-methyl-1H-pyrazol-3-yl)pyrimidine-2,4-diamine]: 15 nM; for `CNC(=O)CN1CCC(c2cc(C)c(Nc3ncc(Cl)c(Nc4cc(C5CC5)[nH]n4)n3)cc2C)CC1` [Compound 33, 2-(4-(4-(5-chloro-4-(5-cyclopropyl-1H-pyrazol-3-ylamino)pyrimidin-2-ylamino)-2,5-dimethylphenyl)piperidin-1-yl)-N-methylacetamide]: 6 nM. `CNC(=O)CN1CCC(c2cc(C)c(Nc3ncc(C(F)(F)F)c(Nc4cc(C)[nH]n4)n3)cc2C)CC1` [Compound 203, 2-(4-(2,5-dimethyl-4-(4-(5-methyl-1H-pyrazol-3-ylamino)-5-(trifluoromethyl)pyrimidin-2-ylamino)phenyl)piperidin-1-yl)-N-methylacetamide] yielded a half-inhibitory concentration (IC50) of 15 nM. As for `Cc1cc(Nc2nc(Nc3cc(C)c(N4CCNCC4=O)cc3C)ncc2Cl)n[nH]1` [Compound 155, 1-(4-(5-chloro-4-(5-methyl-1H-pyrazol-3-ylamino)pyrimidin-2-ylamino)-2,5-dimethylphenyl)piperazin-2-one], the half-inhibitory concentration (IC50) amounted to 1650 nM. Consider `Cc1cc(Nc2nc(Nc3cc(C)c(C4CCN(C5CCOCC5)CC4)cc3C)ncc2Cl)n[nH]1` [Compound 252, 5-chloro-N2-(2,5-dimethyl-4-(1-(tetrahydro-2H-pyran-4-yl)piperidin-4-yl)phenyl)-N4-(5-methyl-1H-pyrazol-3-yl)pyrimidine-2,4-diamine], for which inhibition was half-maximal at 14 nM (IC50). In turn, `Cc1cc(Nc2nc(Nc3cc(C)c(C4CCN(C5CCS(=O)(=O)C5)CC4)cc3F)ncc2Cl)n[nH]1` (centres unmarked) [Compound 145, 5-chloro-N^2-(2-fluoro-5-methyl-4-(1-(tetrahydro-1,1-dioxido-3-thienyl)piperidin-4-yl)phenyl)-N^4-(5-methyl-1H-pyrazol-3-yl)pyrimidine-2,4-diamine] gave a half-maximal inhibitory concentration (IC50) of 18 nM. `Cc1cc(Nc2nc(Nc3cc(Cl)c(C4CCN(C(=O)CN(C)C)CC4)cc3Cl)ncc2Cl)n[nH]1` [Compound 77, 1-(4-(2,5-dichloro-4-(5-chloro-4-(5-methyl-1H-pyrazol-3-ylamino)pyrimidin-2-ylamino)phenyl)piperidin-1-yl)-2-(dimethylamino)ethanone] showed an IC50 of 7 nM. Molecule `Cc1cc(Nc2nc(Nc3cc(C)c(C4CCCCN4C[C@H](O)C(F)(F)F)cc3C)ncc2Cl)n[nH]1` (stereo partly drawn) [Compound 197, (2S)-3-(2-(4-(5-chloro-4-(5-methyl-1H-pyrazol-3-ylamino)pyrimidin-2-ylamino)-2,5-dimethylphenyl)piperidin-1-yl)-1,1,1-trifluoropropan-2-ol] yielded a half-inhibitory concentration (IC50) of 210 nM. In the case of `COc1cc(Nc2ncc(Cl)c(Nc3cc(C)[nH]n3)n2)c(C)cc1C1CCN(C[C@H](O)C(F)(F)F)CC1` [Compound 213, (S)-3-(4-(4-(5-chloro-4-(5-methyl-1H-pyrazol-3-ylamino)pyrimidin-2-ylamino)-2-methoxy-5-methylphenyl)piperidin-1-yl)-1,1,1-trifluoropropan-2-ol], the half-maximal inhibitory concentration (IC50) was 12 nM.

`Cc1cc(Nc2nc(Nc3cc(C)c(C4CCN(C(=O)c5c(C)nn(C)c5C)CC4)cc3F)ncc2Cl)n[nH]1` [Compound 129, (4-(4-(5-chloro-4-(5-methyl-1H-pyrazol-3-ylamino)pyrimidin-2-ylamino)-5-fluoro-2-methylphenyl)piperidin-1-yl)(1,3,5-trimethyl-1H-pyrazol-4-yl)methanone] returned an IC50 of 25 nM. Turning to `Cc1cc(Nc2nc(Nc3cc(C)c(C4CCN(C(=O)C5(N(C)C)CCC5)CC4)cc3C)ncc2Cl)n[nH]1` [Compound 92, (4-(4-(5-chloro-4-(5-methyl-1H-pyrazol-3-ylamino)pyrimidin-2-ylamino)-2,5-dimethylphenyl)piperidin-1-yl)(1-(dimethylamino)cyclobutyl)methanone], the IC50 was found to be 15 nM. Take `Cc1cc(Nc2nc(Nc3cc(C)c(C4CCN(C(=O)C5CN(C)C5)CC4)cc3C)ncc2Cl)n[nH]1` [Compound 120, (4-(4-(5-chloro-4-(5-methyl-1H-pyrazol-3-ylamino)pyrimidin-2-ylamino)-2,5-dimethylphenyl)piperidin-1-yl)(1-methylazetidin-3-yl)methanone]: the midpoint of inhibition, the IC50, lay at 25 nM.

Regarding `Cc1cc(Nc2ncc(Cl)c(Nc3cc(C4CC4)[nH]n3)n2)c(F)cc1C1CCN(CC(N)=O)CC1` [Compound 34, 2-(4-(4-(5-chloro-4-(5-cyclopropyl-1H-pyrazol-3-ylamino)pyrimidin-2-ylamino)-5-fluoro-2-methylphenyl)piperidin-1-yl)acetamide], the concentration for half-maximal inhibition (IC50) came to 49 nM. With `Cc1cc(Nc2nc(Nc3cc(C)c(C4CCN(CCC(=O)NC5CC5)CC4)cc3F)ncc2Cl)n[nH]1` [Compound 247, 3-(4-(4-(5-chloro-4-(5-methyl-1H-pyrazol-3-ylamino)pyrimidin-2-ylamino)-5-fluoro-2-methylphenyl)piperidin-1-yl)-N-cyclopropylpropanamide], half-maximal inhibition (IC50) required 62 nM. With `Cc1cc(Nc2nc(Nc3cc(C)c(C4CCN(C(=O)N5CCN(C)CC5)CC4)cc3F)ncc2Cl)n[nH]1` [Compound 112, (4-(4-(5-chloro-4-(5-methyl-1H-pyrazol-3-ylamino)pyrimidin-2-ylamino)-5-fluoro-2-methylphenyl)piperidin-1-yl)(4-methylpiperazin-1-yl)methanone], 21 nM corresponded to half-maximal inhibition (IC50).

On to `Cc1cc(Nc2nc(Nc3cc(C)c(C4CCN([C@H](C)C(N)=O)CC4)cc3C)ncc2Cl)n[nH]1` [Compound 167, (R)-2-(4-(4-(5-chloro-4-(5-methyl-1H-pyrazol-3-ylamino)pyrimidin-2-ylamino)-2,5-dimethylphenyl)piperidin-1-yl)propanamide], for which 6 nM corresponded to half-maximal inhibition (IC50). As to `Cc1cc(Nc2nc(Nc3cc(C)c(C4CCN(C5CCN(S(C)(=O)=O)C5)CC4)cc3F)ncc2Cl)n[nH]1` (centres unmarked) [Compound 301, 5-chloro-N2-(2-fluoro-5-methyl-4-(1-(1-(methylsulfonyl)pyrrolidin-3-yl)piperidin-4-yl)phenyl)-N4-(5-methyl-1H-pyrazol-3-yl)pyrimidine-2,4-diamine], it took 38 nM to reach half-maximal inhibition (IC50). `Cc1cc(Nc2nc(Nc3cc(C)c(C4CCN(Cc5noc(C(C)(C)C)n5)CC4)cc3F)ncc2Cl)n[nH]1` [Compound 267, N2-(4-(1-((5-tert-butyl-1,2,4-oxadiazol-3-yl)methyl)piperidin-4-yl)-2-fluoro-5-methylphenyl)-5-chloro-N4-(5-methyl-1H-pyrazol-3-yl)pyrimidine-2,4-diamine]: the IC50 is 77 nM.

Turning to `CNCC(=O)N1CCC(c2cc(F)c(Nc3ncc(Cl)c(Nc4cc(C)[nH]n4)n3)cc2C)CC1` [Compound 80, 1-(4-(4-(5-chloro-4-(5-methyl-1H-pyrazol-3-ylamino)pyrimidin-2-ylamino)-5-fluoro-2-methylphenyl)piperidin-1-yl)-2-(methylamino)ethanone], the midpoint of inhibition, the IC50, lay at 103 nM. Molecule `Cc1cc(Nc2nc(Nc3cc(C)c(C4CCN(C)CC4)cc3F)ncc2Cl)n[nH]1` [Compound 1, 5-Chloro-N2-(2-fluoro-5-methyl-4-(1-methylpiperidin-4-yl)phenyl)-N4-(5-methyl-1H-pyrazol-3-yl)pyrimidine-2,4-diamine] yielded a half-maximal inhibitory concentration (IC50) of 11 nM.

`CCN1CCC(c2cc(C)c(Nc3ncc(Cl)c(Nc4cc(C)[nH]n4)n3)cc2C(F)(F)F)CC1` [Compound 241, 5-chloro-N2-(4-(1-ethylpiperidin-4-yl)-2-methyl-5-(trifluoromethyl)phenyl)-N4-(5-methyl-1H-pyrazol-3-yl)pyrimidine-2,4-diamine] gave an IC50 of 68 nM. The same measure for `Cc1cc(Nc2nc(Nc3cc(C)c(C4CCN(CCCS(=O)(=O)N5CCC5)CC4)cc3F)ncc2Cl)n[nH]1` [Compound 243, N2-(4-(1-(3-(azetidin-1-ylsulfonyl)propyl)piperidin-4-yl)-2-fluoro-5-methylphenyl)-5-chloro-N4-(5-methyl-1H-pyrazol-3-yl)pyrimidine-2,4-diamine]: 76 nM; for `CNC(=O)CN1CCC(c2cc(F)c(Nc3ncc(Cl)c(Nc4cc(C5CC5)[nH]n4)n3)cc2C)CC1` [Compound 32, 2-(4-(4-(5-chloro-4-(5-cyclopropyl-1H-pyrazol-3-ylamino)pyrimidin-2-ylamino)-5-fluoro-2-methylphenyl)piperidin-1-yl)-N-methylacetamide]: 42 nM; for `Cc1cc(Nc2nc(Nc3cc(C)c(C4CCN(C)C(C)C4)cc3F)ncc2Cl)n[nH]1` (centres unmarked) [Compound 275, 5-chloro-N2-(4-(1,2-dimethylpiperidin-4-yl)-2-fluoro-5-methylphenyl)-N4-(5-methyl-1H-pyrazol-3-yl)pyrimidine-2,4-diamine]: 9 nM.

For the molecule `Cc1cc(Nc2nc(Nc3cc(C)c(C4CCNC(C)C4)cc3F)ncc2Cl)n[nH]1` (centres unmarked) [Compound 273, 5-chloro-N2-(2-fluoro-5-methyl-4-(2-methylpiperidin-4-yl)phenyl)-N4-(5-methyl-1H-pyrazol-3-yl)pyrimidine-2,4-diamine], the midpoint of inhibition, the IC50, lay at 18 nM.
